Measured values taken from patent publication US9803450B2, “Use of oligo-quaternary compositions to increase scale inhibitor lifetime in a subterranean formation” (Ecolab USA Inc., priority 2012, dated 2017).

Assays:
[1] = Compatibility test of scale inhibitors with Product A in synthetic brine; type: physicochemical; parameters: key: C—Clear; P—Precipitate; conditions: 10% scale inhibitor solution mixed with 10% Product A solution in synthetic brine
Excerpt: Individual solutions (Solutions 1B through 1G) of 10% Product B, C, D, E, F and G, respectively, in a synthetic brine (see the table below showing the synthetic brine composition) were mixed with a 10% solution (Solution 2) of Product A in the synthetic brine. The two sets of solutions were mixed with Solution 2 (i. e., each of Solutions 1B through 1G were mixed with Solution 2) at ratios of 10:90, 30:70, 50:50, 70:30 and 90:10 to indicate that no precipitate would form at any concentration in the mixing concentration range from 10:90 to 90:10. These compatibility screening tests indicate that it is unlikely for any incompatibility to be experienced during deployment and flow back of a squeeze treatment. Any incompatibilities under ambient conditions were observed visually from solution clarity and/or precipitate. The samples were then heated to the test temperature (80° C.) and any further incompatibilities after 2 and 24 hours recorded.

[2] = Coreflood; conditions: flow back versus pre-treatment permeability
Description: Two corefloods were carried out simultaneously on two Bandera outcrop cores (1.5″ diameter by 3″ length), using a Scaled Solutions dual coreflood apparatus. The composition of these cores is set out in the table below:
Both cores were wrapped with PTFE tape and cased in heat shrink tubing prior to insertion into a Viton sleeve and mounted in a Hassler type core holder with a confining pressure of 1200 psi. Both cores were then flushed with synthetic brine at 1 mL/min for at least 2 hours and until the differential pressure was stable. Brine was flushed at 0.5 mL/min overnight.
Both cores were saturated with synthetic brine under ambient conditions in the forward direction at 1 mL/min for 10 minutes, 2 mL/min for 10 minutes, 3 mL/min for 10 minutes, and 4 mL/min for 2 hours and until the differential pressure was stable. After a stable differential pressure was achieved, the permeability to brine was measured in the forward flow by flooding at 4, 3, 2, 1 mL/min at room temperature.
Brine was then injected into both cores in the forward direction at 1 mL/min until the oven reached a temperature of 80° C. […] Following plug saturation, the permeability of each core to synthetic brine was measured in the forward flow by flooding at 4, 3, 2, and 1 mL/min at 80° C. […]
Both cores were injected with synthetic brine at 2 mL/min with effluent samples being collected. The samples were analyzed by ICP. […]

[3] = tested on: Fathead Minnow; assay: Toxicity, LC50 Fathead Minnow; conditions: in vivo
Description: Product A was evaluated for toxicity using various tests.

[4] = ratio printed 10:90 (fifth column)
[5] = ratio printed 30:70 (fourth column)

Row | Permeability Recovery [2] [%] | Permeability Recovery ([2]; listed as Brine/10% Product B) [%] | Compound | Clarity of Mixed Solutions ([1]; ratio 10:90 (first column)) | Clarity of Mixed Solutions ([1]; ratio 30:70 (second column)) | Clarity of Mixed Solutions ([1]; ratio 50:50) | Clarity of Mixed Solutions [1, 4] | Clarity of Mixed Solutions [1, 5] | LC50 Fathead Minnow [3]
1 | 75 | 75 | O=P(O)(O)CN(CCCCCCN(CP(=O)(O)O)CP(=O)(O)O)CCCCCCN(CP(=O)(O)O)CP(=O)(O)O [Product B, BHMT phosphonate] | C | C | C | C | C | –
2 | – | – | C[N+](C)(C)CC(O)C[N+](C)(C)C.[Cl-].[Cl-] [Product A, 1,3-propandiaminium, 2-hydroxy-N,N,N,N′,N′,N′-hexamethyl-, dichloride] | – | – | – | – | – | >1,000 mg/L
3 | – | – | DETA phosphonate [Product C] | C | C | C | C | C | –
